These results are taken from patent publication EP4810489A1, “SUBSTITUTED 2-(PYRROLIDIN-3-YL)ACETIC ACID DERIVATIVE, PREPARATION METHOD THEREFOR AND USE THEREOF” (Innovstone Therapeutics Limited, priority 2023, dated 2025).

By IC50 is commonly meant the concentration that gives 50% inhibition.

In series [1] the target is T1, Lp(a) assembly (Homo sapiens, UniProt P08519).
T1 construct: expressed in transfected cells; host or cells: HepG2 cells overexpressing apo(a)
Briefly: ELISA assay on screening Lp(a) assembly inhibition. The series is classed as cell-based. The settings on record: HepG2 cells overexpressing ApoA protein, 24h incubation, ELISA of culture supernatant. The method, then: Test Example 1 and Methods of ELISA Assay on Screening Lp(a) Assembly Inhibition
1. Reagents, Consumables, Instruments
2. Cell Culture Media Preparation 2.1. Complete Cell Culture Media
3. Test Procedure • 3.1 Cell Culture and Passage • 1) Preheated the culture media, DPBS, and pancreatin in a 37°C water bath in advance. • 2) Digested cells with pancreatin, transferred the cell suspension to a 15 mL centrifuge tube, and centrifuged at 1000 rpm for 5 min. • 3) Resuspended the cells with culture media and transferred the cell suspension to a new T75 cell culture flask. • 4) Cultured at 37°C in a 5% CO2 incubator. • 3.2. Cell Seeding and Drug Administration • 1) Seeded HepG2 cells overexpressing of ApoA protein into a 96-well plate at 100 µL per well and incubated overnight for attachment. • 2) Replaced with fresh culture media the next day, then added diluted compounds, and cultured the cell plate in a 5% CO2, 37°C incubator for 24h. • 3.3. Preparation of Cell Culture Supernatant • 1) Added 10 µL of 1.5 M EACA to each well. • 2) Centrifuged at 1000 rpm for 1 min, and transferred 100 µL of cell culture supernatant to a pre-coated ELISA plate. • 3.4. […]
Background: An ELISA detects its analyte on a solid surface through an enzyme-linked reagent.

Series [2] in a line: Safety assessment test in rats. The series is classed as in vivo, SD rats. The settings on record: oral gavage, 300 mg/kg and 1000 mg/kg once daily for 14 consecutive days. As to the method:
Test Example 5 and Safety Assessment Test in Rats
The safety of the compounds of the present invention was evaluated by oral gavage administration to SD rats as the test animals.
Test method: 50 SD rats (half males and half females) were randomly divided into vehicle control group and test article group according to their body weight. The vehicle saline or the compound of the present invention or LY3473329 (300 mg/kg, 1000 mg/kg) was administered orally once daily for 14 consecutive days.

Series [3] has as its system Lp(a). Briefly: Humanized mouse Lp(a) inhibition test. The settings on record: oral, 5 mg/kg once daily for 3 consecutive days, blood 8 h after last dose. It is filed as in vivo, humanized Lp(a) transgenic mouse. The method, then:
Test Example 3 and Humanized Mouse Lp(a) Inhibition Test
The in vivo pharmacodynamics of the compounds in reducing Lp(a) was evaluated in a humanized Lp(a) transgenic mouse model.Lp(a) mice were obtained by crossing mice expressing humanized apoB-100 with mice expressing humanized apo(a) containing 16 Kringle repeats.Female mice aged 8-9 weeks were selected for the test.Housing conditions: standard light cycle (12 h light/12 h dark), temperature 20-25°C, humidity 40-70%, free access to water and normal diet.
One day before the test, mice were divided into vehicle control group and test article group (n=5/group) according to body weight and baseline plasma Lp(a) concentration. […] Eight hours after the last dose, 10 µL of blood was collected from the tail vein and transferred to a 1.5 mL centrifuge tube containing 90 µL of normal saline, mixed well, and left to stand on ice for 30min.The above samples were centrifuged at 4°C, 3000 rpm for 10 min, and the supernatant was collected and placed on ice.The Lp(a) concentration in the supernatant was measured by double-antibody sandwich ELISA using an anti-apo(a) capture antibody and an HRP-conjugated anti-ApoB detection antibody, with TMB for color development. The reaction was stopped with 1 N sulfuric acid, and the OD value was read at 450 nm on a Tecan microplate reader.Inhibition rate was calculated for each dosing group. […]

SMILES strings stand for the structures.

T1 sequence (P08519 20-2040): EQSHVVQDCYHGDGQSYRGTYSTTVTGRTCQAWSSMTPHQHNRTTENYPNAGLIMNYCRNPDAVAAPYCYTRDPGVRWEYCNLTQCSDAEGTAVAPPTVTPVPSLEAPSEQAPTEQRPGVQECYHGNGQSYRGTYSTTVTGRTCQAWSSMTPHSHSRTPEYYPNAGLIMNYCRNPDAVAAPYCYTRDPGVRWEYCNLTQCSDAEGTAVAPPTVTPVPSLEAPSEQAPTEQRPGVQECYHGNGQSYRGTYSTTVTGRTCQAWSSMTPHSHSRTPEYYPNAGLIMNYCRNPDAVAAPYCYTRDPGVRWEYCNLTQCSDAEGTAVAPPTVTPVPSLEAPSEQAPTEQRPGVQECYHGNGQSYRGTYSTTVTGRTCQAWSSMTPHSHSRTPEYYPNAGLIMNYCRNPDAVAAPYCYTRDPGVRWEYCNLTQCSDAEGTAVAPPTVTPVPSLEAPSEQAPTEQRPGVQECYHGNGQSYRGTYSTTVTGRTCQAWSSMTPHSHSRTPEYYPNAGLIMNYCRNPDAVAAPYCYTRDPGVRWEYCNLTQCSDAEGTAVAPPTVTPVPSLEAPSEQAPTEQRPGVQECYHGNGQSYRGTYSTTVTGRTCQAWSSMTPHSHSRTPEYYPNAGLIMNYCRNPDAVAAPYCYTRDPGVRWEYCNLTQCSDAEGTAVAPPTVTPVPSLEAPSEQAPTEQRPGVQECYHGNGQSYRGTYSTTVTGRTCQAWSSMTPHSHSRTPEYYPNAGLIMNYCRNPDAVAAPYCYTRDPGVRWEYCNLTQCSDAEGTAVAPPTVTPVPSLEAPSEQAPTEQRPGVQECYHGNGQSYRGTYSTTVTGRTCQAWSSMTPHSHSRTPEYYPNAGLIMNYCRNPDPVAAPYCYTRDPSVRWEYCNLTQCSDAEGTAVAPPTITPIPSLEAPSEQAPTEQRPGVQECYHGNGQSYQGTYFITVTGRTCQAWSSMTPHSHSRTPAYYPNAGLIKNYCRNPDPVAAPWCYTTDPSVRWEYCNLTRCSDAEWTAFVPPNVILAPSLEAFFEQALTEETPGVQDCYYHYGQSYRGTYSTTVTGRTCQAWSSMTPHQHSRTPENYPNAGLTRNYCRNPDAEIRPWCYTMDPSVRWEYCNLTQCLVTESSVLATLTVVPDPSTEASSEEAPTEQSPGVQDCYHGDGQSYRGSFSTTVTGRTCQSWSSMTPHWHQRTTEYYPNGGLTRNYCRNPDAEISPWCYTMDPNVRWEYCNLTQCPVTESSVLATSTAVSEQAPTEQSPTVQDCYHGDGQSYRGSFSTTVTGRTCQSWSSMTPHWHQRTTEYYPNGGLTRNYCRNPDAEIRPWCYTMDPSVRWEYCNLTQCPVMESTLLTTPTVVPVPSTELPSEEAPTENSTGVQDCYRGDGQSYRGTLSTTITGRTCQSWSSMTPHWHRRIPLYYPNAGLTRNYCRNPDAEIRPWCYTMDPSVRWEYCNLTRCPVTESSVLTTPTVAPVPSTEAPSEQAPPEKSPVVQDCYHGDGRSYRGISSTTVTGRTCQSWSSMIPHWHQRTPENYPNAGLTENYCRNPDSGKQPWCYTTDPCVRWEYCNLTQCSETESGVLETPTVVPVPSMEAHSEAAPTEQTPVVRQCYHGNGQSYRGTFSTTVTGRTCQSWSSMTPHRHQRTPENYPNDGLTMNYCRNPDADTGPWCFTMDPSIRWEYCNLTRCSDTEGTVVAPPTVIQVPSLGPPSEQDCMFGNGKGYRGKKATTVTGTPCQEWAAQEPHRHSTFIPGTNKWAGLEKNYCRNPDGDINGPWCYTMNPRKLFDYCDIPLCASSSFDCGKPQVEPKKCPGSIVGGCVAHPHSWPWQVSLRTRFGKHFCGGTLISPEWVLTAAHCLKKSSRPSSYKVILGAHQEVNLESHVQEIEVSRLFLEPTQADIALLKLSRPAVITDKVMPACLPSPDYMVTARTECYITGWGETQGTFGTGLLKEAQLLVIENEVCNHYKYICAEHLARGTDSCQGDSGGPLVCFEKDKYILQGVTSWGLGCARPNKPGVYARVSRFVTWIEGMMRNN

Turning to `O=C(O)[C@@H](Cc1ccc2c(CN(Cc3n[nH]c4cc(C[C@H](C(=O)O)[C@H]5CCNC5)ccc34)Cc3n[nH]c4cc(C[C@H](C(=O)O)[C@H]5CCNC5)ccc34)n[nH]c2c1)[C@H]1CCNC1` [Compound 136], in series [1], the IC50 was determined as 2.16 nM. That is a single-digit nanomolar value.

For the compound `O=C(O)[C@@H](Cc1cccc(CN(Cc2cccc(C[C@H](C(=O)O)[C@H]3CCNC3)c2)Cc2cccc(C[C@H](C(=O)O)[C@H]3CCNC3)c2)c1)[C@H]1CCNC1` [LY3473329], the IC50 in series [1] is 1.05 nM. The “changes in clinical observation, body weight and weight gain, food consumption, hematology, blood biochemistry, urine, organ weight and coefficients, and histopathology” value in series [2] is given as “no changes”. Further, the “Lp(a) Inhibition Rate” value in series [3] is recorded as 56%.
